Converted amounts (≈) assume the structure as drawn.
Legend:
Type in all cases: cell-based
S. pneumo. = test: MIC values, S. pneumo. (Tables 1-4)
H. flu = test system: H. flu
S. aureus = test: MIC values, S. aureus (Tables 1-4)
E. coli = test: MIC values, E. coli (Tables 1-4)
E. faecalis = test: MIC values, E. faecalis (Tables 1-4)

| Compound | MIC S. pneumo. (S. pneumo.) | MIC H. flu (H. flu) | MIC S. aureus (S. aureus) | MIC E. coli (E. coli) | MIC E. faecalis (E. faecalis) |
| --- | --- | --- | --- | --- | --- |
| CO[C@H]1/C=C/O[C@@]2(C)Oc3c(C)c(O)c4c(=O)c(c5oc6cc(N7CCC(C)(NC(C)=O)CC7)cc(O)c6nc-5c4c3C2=O)NC(=O)/C(C)=C\C=C\[C@H](C)[C@H](O)[C@@H](C)[C@@H](O)[C@@H](C)[C@H](O)[C@@H]1C [Compound 74] | 1 ng/mL (≈ 1.1 nM) | 120 ng/mL (≈ 131 nM) | 30 ng/mL (≈ 32.9 nM) | >8000 ng/mL | 500 ng/mL (≈ 548 nM) |
| CO[C@H]1/C=C/O[C@@]2(C)Oc3c(C)c(O)c4c(=O)c(c5oc6cc(N7CCC(c8ccccc8)CC7)cc(O)c6nc-5c4c3C2=O)NC(=O)/C(C)=C\C=C\[C@H](C)[C@H](O)[C@@H](C)[C@@H](O)[C@@H](C)[C@H](OC(C)=O)[C@@H]1C [Compound 57] | 0.5 ng/mL (≈ 0.521 nM) | 500 ng/mL (≈ 521 nM) | 8 ng/mL (≈ 8.33 nM) | 8000 ng/mL (≈ 8330 nM) | 2000 ng/mL (≈ 2080 nM) |
| CO[C@H]1/C=C/O[C@@]2(C)Oc3c(C)c(O)c4c(=O)c(c5sc6cc(N7C[C@@H](C)N[C@@H](C)C7)ccc6nc-5c4c3C2=O)NC(=O)/C(C)=C\C=C\[C@H](C)[C@H](O)[C@@H](C)[C@@H](O)[C@@H](C)[C@H](O)[C@@H]1C [Compound 65] | 0.25 ng/mL (≈ 0.287 nM) | 120 ng/mL (≈ 138 nM) | 2 ng/mL (≈ 2.3 nM) | 2000 ng/mL (≈ 2300 nM) | 120 ng/mL (≈ 138 nM) |
| COC1C=COC2(C)Oc3c(C)c(O)c4c(=O)c(c5oc6cc(N7CC(C)NCC7C)cc(O)c6nc-5c4c3C2=O)NC(=O)C(C)=CC=CC(C)C(O)C(C)C(O)C(C)C(O)C1C (stereo not shown) [Compound 100] | 0.5 ng/mL (≈ 0.574 nM) | 250 ng/mL (≈ 287 nM) | 4 ng/mL (≈ 4.59 nM) | 4000 ng/mL (≈ 4590 nM) | 120 ng/mL (≈ 138 nM) |
| COCCOC(=O)NC1CCN(c2cc(O)c3nc4c5c6c7c(C)c(O)c5c(=O)c(c-4oc3c2)NC(=O)/C(C)=C\C=C\[C@H](C)[C@H](O)[C@@H](C)[C@@H](O)[C@@H](C)[C@H](OC(C)=O)[C@H](C)[C@@H](OC)/C=C/O[C@@](C)(O7)C6=O)CC1 [Compound 41] | 0.5 ng/mL (≈ 0.499 nM) | 2000 ng/mL (≈ 2000 nM) | 250 ng/mL (≈ 250 nM) | >8000 ng/mL | >8000 ng/mL |
| CO[C@H]1/C=C/O[C@@]2(C)Oc3c(C)c(O)c4c(=O)c(c5oc6cc(N7CCN(CCF)CC7)cc(O)c6nc-5c4c3C2=O)NC(=O)/C(C)=C\C=C\[C@H](C)[C@H](O)[C@@H](C)[C@@H](O)[C@@H](C)[C@H](O)[C@@H]1C [Compound 105] | 1 ng/mL (≈ 1.12 nM) | 120 ng/mL (≈ 135 nM) | 4 ng/mL (≈ 4.5 nM) | 8000 ng/mL (≈ 9000 nM) | 120 ng/mL (≈ 135 nM) |
| COC1C=COC2(C)Oc3c(C)c(O)c4c(=O)c(c5oc6cc(N7CC8CCCN(C(C)=O)C8C7)cc(O)c6nc-5c4c3C2=O)NC(=O)C(C)=CC=CC(C)C(O)C(C)C(O)C(C)C(O)C1C (stereo not shown) [Compound 46] | 0.06 ng/mL (≈ 0.0649 nM) | 500 ng/mL (≈ 541 nM) | 4 ng/mL (≈ 4.32 nM) | >8000 ng/mL | 2000 ng/mL (≈ 2160 nM) |
| CO[C@H]1/C=C/O[C@@]2(C)Oc3c(C)c(O)c4c(=O)c(c5oc6ccc(F)cc6nc-5c4c3C2=O)NC(=O)/C(C)=C\C=C\[C@H](C)[C@H](O)[C@@H](C)[C@@H](O)[C@@H](C)[C@H](O)[C@@H]1C [Compound 138] | 60 ng/mL (≈ 78.9 nM) | 500 ng/mL (≈ 657 nM) | 30 ng/mL (≈ 39.4 nM) | >8000 ng/mL | 500 ng/mL (≈ 657 nM) |
| CCOC(=O)NCC1CCN(c2cc(O)c3nc4c5c6c7c(C)c(O)c5c(=O)c(c-4oc3c2)NC(=O)/C(C)=C\C=C\[C@H](C)[C@H](O)[C@@H](C)[C@@H](O)[C@@H](C)[C@H](O)[C@H](C)[C@@H](OC)/C=C/O[C@@](C)(O7)C6=O)CC1 [Compound 60] | 0.5 ng/mL (≈ 0.53 nM) | 60 ng/mL (≈ 63.6 nM) | 8 ng/mL (≈ 8.48 nM) | >8000 ng/mL | 500 ng/mL (≈ 530 nM) |
| COC1C=COC2(C)Oc3c(C)c(O)c4c(=O)c(c5oc6cc(N7CC8CCCNC8C7)cc(O)c6nc-5c4c3C2=O)NC(=O)C(C)=CC=CC(C)C(O)C(C)C(O)C(C)C(O)C1C (stereo not shown) [Compound 142] | 4 ng/mL (≈ 4.53 nM) | 4000 ng/mL (≈ 4530 nM) | 120 ng/mL (≈ 136 nM) | >8000 ng/mL | 4000 ng/mL (≈ 4530 nM) |
| CCOC(=O)NC1C2CN(c3cc(O)c4nc5c6c7c8c(C)c(O)c6c(=O)c(c-5oc4c3)NC(=O)C(C)=CC=CC(C)C(O)C(C)C(O)C(C)C(OC(C)=O)C(C)C(OC)C=COC(C)(O8)C7=O)CC21 (stereo not shown) [Compound 21] | 1 ng/mL (≈ 1.03 nM) | 500 ng/mL (≈ 516 nM) | 4 ng/mL (≈ 4.13 nM) | 4000 ng/mL (≈ 4130 nM) | 120 ng/mL (≈ 124 nM) |
| COC1C=COC2(C)Oc3c(C)c(O)c4c(=O)c(c5oc6cc(N7CC8CCCNC8C7)cc(O)c6nc-5c4c3C2=O)NC(=O)C(C)=CC=CC(C)C(O)C(C)C(O)C(C)C(OC(C)=O)C1C (stereo not shown) [Compound 143] | 0.25 ng/mL (≈ 0.27 nM) | 250 ng/mL (≈ 270 nM) | 4 ng/mL (≈ 4.32 nM) | 8000 ng/mL (≈ 8650 nM) | 120 ng/mL (≈ 130 nM) |
| CO[C@H]1/C=C/O[C@@]2(C)Oc3c(C)c(O)c4c(=O)c(c5sc6cc(N7CCC(N(C)C)CC7)ccc6nc-5c4c3C2=O)NC(=O)/C(C)=C\C=C\[C@H](C)[C@H](O)[C@@H](C)[C@@H](O)[C@@H](C)[C@H](OC(C)=O)[C@@H]1C [Compound 69] | 0.25 ng/mL (≈ 0.27 nM) | 500 ng/mL (≈ 539 nM) | 15 ng/mL (≈ 16.2 nM) | 4000 ng/mL (≈ 4310 nM) | 500 ng/mL (≈ 539 nM) |
| CO[C@H]1/C=C/O[C@@]2(C)Oc3c(C)c(O)c4c(=O)c(c5oc6cc(N7CCC(NS(=O)(=O)C(F)(F)F)CC7)cc(O)c6nc-5c4c3C2=O)NC(=O)/C(C)=C\C=C\[C@H](C)[C@H](O)[C@@H](C)[C@@H](O)[C@@H](C)[C@H](O)[C@@H]1C [Compound 38] | 15 ng/mL (≈ 15.2 nM) | 250 ng/mL (≈ 253 nM) | 120 ng/mL (≈ 121 nM) | >8000 ng/mL | 8000 ng/mL (≈ 8090 nM) |
| COC1C=COC2(C)Oc3c(C)c(O)c4c(=O)c(c5oc6cc(N7CCN8CCCC8C7)cc(O)c6nc-5c4c3C2=O)NC(=O)C(C)=CC=CC(C)C(O)C(C)C(O)C(C)C(O)C1C (stereo not shown) [Compound 88] | 0.25 ng/mL (≈ 0.283 nM) | 250 ng/mL (≈ 283 nM) | 4 ng/mL (≈ 4.53 nM) | 8000 ng/mL (≈ 9060 nM) | 30 ng/mL (≈ 34 nM) |
| CCOC(=O)N1CCCC2CN(c3cc(O)c4nc5c6c7c8c(C)c(O)c6c(=O)c(c-5oc4c3)NC(=O)C(C)=CC=CC(C)C(O)C(C)C(O)C(C)C(OC(C)=O)C(C)C(OC)C=COC(C)(O8)C7=O)CC21 (stereo not shown) [Compound 147] | 8 ng/mL (≈ 8.02 nM) | 500 ng/mL (≈ 501 nM) | 60 ng/mL (≈ 60.2 nM) | >8000 ng/mL | 1000 ng/mL (≈ 1000 nM) |
| CO[C@H]1/C=C/O[C@@]2(C)Oc3c(C)c(O)c4c(=O)c(c5oc6cc(N7CCC(F)(F)CC7)ccc6nc-5c4c3C2=O)NC(=O)/C(C)=C\C=C\[C@H](C)[C@H](O)[C@@H](C)[C@@H](O)[C@@H](C)[C@H](O)[C@@H]1C [Compound 115] | 15 ng/mL (≈ 17.4 nM) | 250 ng/mL (≈ 290 nM) | 30 ng/mL (≈ 34.8 nM) | >8000 ng/mL | 1000 ng/mL (≈ 1160 nM) |
| CO[C@H]1/C=C/O[C@@]2(C)Oc3c(C)c(O)c4c(=O)c(c5oc6cc(F)ccc6nc-5c4c3C2=O)NC(=O)/C(C)=C\C=C\[C@H](C)[C@H](O)[C@@H](C)[C@@H](O)[C@@H](C)[C@H](O)[C@@H]1C [Compound 139] | 30 ng/mL (≈ 39.4 nM) | 500 ng/mL (≈ 657 nM) | 30 ng/mL (≈ 39.4 nM) | >8000 ng/mL | 500 ng/mL (≈ 657 nM) |
| CC[C@H]1CN(c2cc(O)c3nc4c5c6c7c(C)c(O)c5c(=O)c(c-4oc3c2)NC(=O)/C(C)=C\C=C\[C@H](C)[C@H](O)[C@@H](C)[C@@H](O)[C@@H](C)[C@H](O)[C@H](C)[C@@H](OC)/C=C/O[C@@](C)(O7)C6=O)C[C@H](C)N1 [Compound 93] | 0.12 ng/mL (≈ 0.136 nM) | 250 ng/mL (≈ 282 nM) | 4 ng/mL (≈ 4.52 nM) | 4000 ng/mL (≈ 4520 nM) | 500 ng/mL (≈ 565 nM) |
| CO[C@H]1/C=C/O[C@@]2(C)Oc3c(C)c(O)c4c(=O)c(c5oc6cc(N7CCC(N8CCOCC8)CC7)cc(O)c6nc-5c4c3C2=O)NC(=O)/C(C)=C\C=C\[C@H](C)[C@H](O)[C@@H](C)[C@@H](O)[C@@H](C)[C@H](O)[C@@H]1C [Compound 11] | 0.12 ng/mL (≈ 0.129 nM) | 1000 ng/mL (≈ 1080 nM) | 4 ng/mL (≈ 4.31 nM) | 4000 ng/mL (≈ 4310 nM) | 250 ng/mL (≈ 270 nM) |
